The numbers were not newly measured in US10253371B2, “Method of treating leukemia based on gene expression of clock genes” (National Guard Health Affairs, priority 2016, dated 2019), which cites them from elsewhere.

The structures appear in SMILES notation.

In series [1] the test system is Bcr-Abl tyrosine kinase. To be noted: more potent than imatinib.
Series [2] has as its system Bcr-Abl expressing cells. To be noted: more potent than imatinib.

On to `Cc1cn(-c2cc(NC(=O)c3ccc(C)c(Nc4nccc(-c5cccnc5)n4)c3)cc(C(F)(F)F)c2)cn1` [Nilotinib], for which the “potency relative to imatinib in inhibiting Bcr-Abl tyrosine kinase activity” value in series [1] is on record as 10-30 fold. Further, the “potency relative to imatinib in inhibiting proliferation of Bcr-Abl expressing cells” value in series [2] is 10-30 fold.
